Assay results reported in the supplement of paper PMC11451515.

Tested on: NOMO1
Assay: cell viability relative to DMSO control; higher = less cytotoxic
Settings: 48 h
Method in brief: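 NOMO1 or SEM (500 cells/well) or P12-Ichikawa (1000 cells/well) leukemia cells were adapted for at least four passages in each medium. They were seeded in 1536-well plates (5 μl) and pin-dosed with library compounds in DMSO over an 11-point threefold series, 47 μM to 0.79 nM. CellTiter-Glo One luminescence was read after 48 h at 37°C. Viability is the per-plate percentage relative to DMSO wells, with cell-free wells as background.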

[1] = HPLM + 10% dialyzed FBS, 0.000781 µM
[2] = HPLM + 10% dialyzed FBS, 0.00234 µM
[3] = HPLM + 10% dialyzed FBS, 0.00702 µM
[4] = HPLM + 10% dialyzed FBS, 0.0211 µM
[5] = HPLM + 10% dialyzed FBS, 0.0632 µM
[6] = HPLM + 10% dialyzed FBS, 0.19 µM
[7] = HPLM + 10% dialyzed FBS, 0.569 µM
[8] = HPLM + 10% dialyzed FBS, 1.71 µM
[9] = HPLM + 10% dialyzed FBS, 5.12 µM
[10] = HPLM + 10% dialyzed FBS, 15.4 µM
[11] = HPLM + 10% dialyzed FBS, 46.1 µM
[12] = RPMI 5 mM glucose + 10% FBS, 0.000781 µM
[13] = RPMI 5 mM glucose + 10% FBS, 0.00234 µM
[14] = RPMI 5 mM glucose + 10% FBS, 0.00702 µM
[15] = RPMI 5 mM glucose + 10% FBS, 0.0211 µM
[16] = RPMI 5 mM glucose + 10% FBS, 0.0632 µM
[17] = RPMI 5 mM glucose + 10% FBS, 0.19 µM
[18] = RPMI 5 mM glucose + 10% FBS, 0.569 µM
[19] = RPMI 5 mM glucose + 10% FBS, 1.71 µM
[20] = RPMI 5 mM glucose + 10% FBS, 5.12 µM
[21] = RPMI 5 mM glucose + 10% FBS, 15.4 µM
[22] = RPMI 5 mM glucose + 10% FBS, 46.1 µM
[23] = RPMI 5 mM glucose + 10% dialyzed FBS, 0.000781 µM
[24] = RPMI 5 mM glucose + 10% dialyzed FBS, 0.00234 µM
[25] = RPMI 5 mM glucose + 10% dialyzed FBS, 0.00702 µM
[26] = RPMI 5 mM glucose + 10% dialyzed FBS, 0.0211 µM
[27] = RPMI 5 mM glucose + 10% dialyzed FBS, 0.0632 µM
[28] = RPMI 5 mM glucose + 10% dialyzed FBS, 0.19 µM
[29] = RPMI 5 mM glucose + 10% dialyzed FBS, 0.569 µM
[30] = RPMI 5 mM glucose + 10% dialyzed FBS, 1.71 µM
[31] = RPMI 5 mM glucose + 10% dialyzed FBS, 5.12 µM
[32] = RPMI 5 mM glucose + 10% dialyzed FBS, 15.4 µM
[33] = RPMI 5 mM glucose + 10% dialyzed FBS, 46.1 µM

SMILES: O=C(NC1CCOCC1)c1ccc(-c2cc(-c3c[nH]nc3-c3ccccn3)ccn2)cc1
- cell viability [1]: 125%
- cell viability [2]: 99.7%
- cell viability [3]: 110%
- cell viability [4]: 93.6%
- cell viability [5]: 120%
- cell viability [6]: 107%
- cell viability [7]: 114%
- cell viability [8]: 101%
- cell viability [9]: 87.5%
- cell viability [10]: 110%
- cell viability [11]: 108%
- cell viability [12]: 99.4%
- cell viability [13]: 97.6%
- cell viability [14]: 102%
- cell viability [15]: 98.8%
- cell viability [16]: 99.7%
- cell viability [17]: 104%
- cell viability [18]: 93.2%
- cell viability [19]: 87.3%
- cell viability [20]: 93.1%
- cell viability [21]: 104%
- cell viability [22]: 93.8%
- cell viability [23]: 106%
- cell viability [24]: 94.9%
- cell viability [25]: 99.6%
- cell viability [26]: 91.1%
- cell viability [27]: 104%
- cell viability [28]: 92.4%
- cell viability [29]: 95.3%
- cell viability [30]: 104%
- cell viability [31]: 96.7%
- cell viability [32]: 97.8%
- cell viability [33]: 93%

SMILES: C[C@H](NC(=O)C(=O)Nc1ccccc1C(C)(C)C)C(=O)N[C@@H](CC(=O)O)C(=O)COc1c(F)c(F)cc(F)c1F
- cell viability [1]: 124%
- cell viability [2]: 120%
- cell viability [3]: 133%
- cell viability [4]: 123%
- cell viability [5]: 142%
- cell viability [6]: 137%
- cell viability [7]: 123%
- cell viability [8]: 141%
- cell viability [9]: 121%
- cell viability [10]: 51.6%
- cell viability [11]: 39%
- cell viability [12]: 115%
- cell viability [13]: 117%
- cell viability [14]: 121%
- cell viability [15]: 118%
- cell viability [16]: 122%
- cell viability [17]: 129%
- cell viability [18]: 131%
- cell viability [19]: 116%
- cell viability [20]: 122%
- cell viability [21]: 89.1%
- cell viability [22]: 26.5%

SMILES: CC/1=C/N([C@@H]2C[C@@H](O)[C@H](CO)O2)C(=O)NC1=O
- cell viability [1]: 97.5%
- cell viability [2]: 109%
- cell viability [3]: 89%
- cell viability [4]: 104%
- cell viability [5]: 102%
- cell viability [6]: 101%
- cell viability [7]: 100%
- cell viability [8]: 95.1%
- cell viability [9]: 80.3%
- cell viability [10]: 92.8%
- cell viability [11]: 61.2%
- cell viability [12]: 84.9%
- cell viability [13]: 85.2%
- cell viability [14]: 82%
- cell viability [15]: 83.4%
- cell viability [16]: 88.7%
- cell viability [17]: 99.3%
- cell viability [18]: 79.7%
- cell viability [19]: 88.1%
- cell viability [20]: 90.1%
- cell viability [21]: 83.7%
- cell viability [22]: 66.4%
- cell viability [23]: 80%
- cell viability [24]: 94%
- cell viability [25]: 84.6%
- cell viability [26]: 86.4%
- cell viability [27]: 98.4%
- cell viability [28]: 87.7%
- cell viability [29]: 92.1%
- cell viability [30]: 85%
- cell viability [31]: 75.9%
- cell viability [32]: 94.4%
- cell viability [33]: 62.3%

SMILES: Cc1ccc(-n2nc(C(C)(C)C)cc2NC(=O)Nc2ccc(OCCN3CCOCC3)c3ccccc23)cc1
- cell viability [1]: 104%
- cell viability [2]: 103%
- cell viability [3]: 119%
- cell viability [4]: 123%
- cell viability [5]: 114%
- cell viability [6]: 104%
- cell viability [7]: 111%
- cell viability [8]: 115%
- cell viability [9]: 120%
- cell viability [10]: 114%
- cell viability [11]: 96%
- cell viability [12]: 102%
- cell viability [13]: 101%
- cell viability [14]: 113%
- cell viability [15]: 103%
- cell viability [16]: 104%
- cell viability [17]: 97.1%
- cell viability [18]: 107%
- cell viability [19]: 106%
- cell viability [20]: 95.8%
- cell viability [21]: 95.4%
- cell viability [22]: 98.1%
- cell viability [23]: 88.2%
- cell viability [24]: 105%
- cell viability [25]: 111%
- cell viability [26]: 106%
- cell viability [27]: 106%
- cell viability [28]: 108%
- cell viability [29]: 118%
- cell viability [30]: 120%
- cell viability [31]: 99.9%
- cell viability [32]: 107%
- cell viability [33]: 96.2%

SMILES: COc1cc2nccc(Oc3ccc(NC(=O)C4(C(=O)Nc5ccc(F)cc5)CC4)cc3)c2cc1OC
- cell viability [1]: 113%
- cell viability [2]: 114%
- cell viability [3]: 112%
- cell viability [4]: 116%
- cell viability [5]: 94.2%
- cell viability [6]: 101%
- cell viability [7]: 116%
- cell viability [8]: 104%
- cell viability [9]: 93.7%
- cell viability [10]: 69.8%
- cell viability [11]: 32.3%
- cell viability [12]: 95.6%
- cell viability [13]: 124%
- cell viability [14]: 101%
- cell viability [15]: 114%
- cell viability [16]: 103%
- cell viability [17]: 104%
- cell viability [18]: 95.1%
- cell viability [19]: 107%
- cell viability [20]: 96.2%
- cell viability [21]: 102%
- cell viability [22]: 64.8%
- cell viability [23]: 102%
- cell viability [24]: 99.2%
- cell viability [25]: 110%
- cell viability [26]: 107%
- cell viability [27]: 111%
- cell viability [28]: 98.2%
- cell viability [29]: 109%
- cell viability [30]: 98%
- cell viability [31]: 95.5%
- cell viability [32]: 71.7%
- cell viability [33]: 47.1%

SMILES: C=C(C)[C@@H]1CC[C@]2(C)CC[C@]3(C)[C@H](CC[C@@H]4[C@@]5(C)CC[C@H](O)C(C)(C)[C@@H]5CC[C@]43C)[C@@H]12
- cell viability [1]: 90.7%
- cell viability [2]: 95.3%
- cell viability [3]: 104%
- cell viability [4]: 123%
- cell viability [5]: 115%
- cell viability [6]: 127%
- cell viability [7]: 109%
- cell viability [8]: 119%
- cell viability [9]: 134%
- cell viability [10]: 117%
- cell viability [11]: 131%
- cell viability [12]: 106%
- cell viability [13]: 111%
- cell viability [14]: 114%
- cell viability [15]: 126%
- cell viability [16]: 121%
- cell viability [17]: 127%
- cell viability [18]: 121%
- cell viability [19]: 115%
- cell viability [20]: 124%
- cell viability [21]: 130%
- cell viability [22]: 115%
- cell viability [23]: 113%
- cell viability [24]: 106%
- cell viability [25]: 111%
- cell viability [26]: 106%
- cell viability [27]: 100%
- cell viability [28]: 113%
- cell viability [29]: 113%
- cell viability [30]: 123%
- cell viability [31]: 123%
- cell viability [32]: 124%
- cell viability [33]: 115%

SMILES: ClC1=CC=C(CCCOC/2=N/NC(=O)C(=C2NCC3=CN=CC=C3)/Br)C=C1
- cell viability [1]: 124%
- cell viability [2]: 117%
- cell viability [3]: 150%
- cell viability [4]: 115%
- cell viability [5]: 115%
- cell viability [6]: 118%
- cell viability [7]: 97.9%
- cell viability [8]: 75.4%
- cell viability [9]: 38.8%
- cell viability [10]: 15.9%
- cell viability [11]: 7.76%
- cell viability [23]: 121%
- cell viability [24]: 120%
- cell viability [25]: 127%
- cell viability [26]: 112%
- cell viability [27]: 111%
- cell viability [28]: 109%
- cell viability [29]: 106%
- cell viability [30]: 106%
- cell viability [31]: 66.2%
- cell viability [32]: 27.8%
- cell viability [33]: 12.9%

SMILES: Cc1c[nH]c(/C=C2\C(=O)Nc3ccccc32)c1CCC(=O)O
- cell viability [1]: 109%
- cell viability [2]: 114%
- cell viability [3]: 116%
- cell viability [4]: 101%
- cell viability [5]: 90.1%
- cell viability [6]: 102%
- cell viability [7]: 95.3%
- cell viability [8]: 83%
- cell viability [9]: 82.2%
- cell viability [10]: 61.3%
- cell viability [11]: 50.7%
- cell viability [12]: 125%
- cell viability [13]: 124%
- cell viability [14]: 114%
- cell viability [15]: 122%
- cell viability [16]: 122%
- cell viability [17]: 116%
- cell viability [18]: 121%
- cell viability [19]: 116%
- cell viability [20]: 103%
- cell viability [21]: 70.6%
- cell viability [22]: 68.1%
- cell viability [23]: 123%
- cell viability [24]: 126%
- cell viability [25]: 121%
- cell viability [26]: 110%
- cell viability [27]: 109%
- cell viability [28]: 111%
- cell viability [29]: 118%
- cell viability [30]: 104%
- cell viability [31]: 91.7%
- cell viability [32]: 77.1%
- cell viability [33]: 58.6%
